Data as given in PMC7360964, “Auto‐inhibition of Mif2/CENP‐C ensures centromere‐dependent kinetochore assembly in budding yeast” (The EMBO Journal, 2020).
Where no end group is shown, it is not given here.

Target: T1, MN (Saccharomyces cerevisiae, UniProt P39731+P47149)
T1 construct: made in house; host or cells: E. coli BL21 (DE3)
T1 sequence (P39731 1-289): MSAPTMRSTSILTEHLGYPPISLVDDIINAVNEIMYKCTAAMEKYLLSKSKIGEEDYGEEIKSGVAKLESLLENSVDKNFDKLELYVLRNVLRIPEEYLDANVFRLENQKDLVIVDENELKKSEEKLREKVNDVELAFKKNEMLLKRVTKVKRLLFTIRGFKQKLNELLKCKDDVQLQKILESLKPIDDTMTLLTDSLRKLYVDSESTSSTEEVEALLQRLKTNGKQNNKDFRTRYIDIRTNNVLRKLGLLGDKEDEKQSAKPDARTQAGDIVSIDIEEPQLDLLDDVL
T1 sequence (P47149 1-201): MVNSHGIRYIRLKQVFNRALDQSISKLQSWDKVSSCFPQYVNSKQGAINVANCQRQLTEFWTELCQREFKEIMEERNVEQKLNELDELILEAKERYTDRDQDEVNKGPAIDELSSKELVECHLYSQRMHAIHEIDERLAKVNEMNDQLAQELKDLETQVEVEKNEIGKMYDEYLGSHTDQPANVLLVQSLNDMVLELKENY
Test: Isothermal titration calorimetry (ITC) with MN
Format: binding, budding yeast (S. cerevisiae)
Details: summary of FP and ITC assays
Text: Figure 5 The Mif2 N‐terminus is prevented from high‐affinity Mtw1c binding in the full‐length molecule • Co‐purification of Strep‐Mtw1c through Flag‐Mif2 after co‐expression in insect cells. Proteins were detected by Western blotting using their respective tags. • Western blotting of elution fractions from an SEC experiment of Mif2‐wt or Mif2^Ame1‐N swap in the absence (upper panel) or presence (lower panel) of Mtw1c. • ITC analysis of Mif2^1‐41 or Ame1^1‐20 binding to MN. Experiments were performed 3 or 4 times, respectively. One representative binding curve is shown, whereas the KD value represents the average of all experiments. • Cross‐link (XL) MS analysis of the Mif2wt protein in isolation or bound to Cse4n using the cross‐linker Bis[sulfosuccinimidyl] glutarate. Mif2wt alone or in combination with Cse4n was subjected to analytical size‐exclusion chromatography at 10 μM concentration. The corresponding Coomassie‐stained SDS–PAGE gels of Mif2‐wt alone or in combination with Cse4n are shown. Fractions used for cross‐linking are highlighted. […]
The binding constant of Ame1 could only be indirectly measured in the FP competition assay, as labeling of Ame1 N‐terminal peptides rendered them insoluble. We therefore directly determined binding affinities of Mif2 and Ame1 N‐terminal peptides to MN using isothermal titration calorimetry (ITC). […]

For “MDYMKLGLKSRKTGIDVKQDIPKDEYSMENIDDFFKDDETS [Mif2^1‐41]”, the “dissociation constants for Mtw1 constructs” value was “low micromolar range”.
